Data taken from US12473324B2, “Triazine-based amphiphilic compound and use thereof” (INDUSTRY-UNIVERSITY COOPERATION FOUNDATION HANYANG …, priority 2019, dated 2025).

Assays:
Assay type in all cases: physicochemical
[1] = Critical micelle concentration (CMC) by fluorescent dye diphenylhexatriene (DPH); details: DPH fluorescence
Method: A method of measuring the CMC is not particularly limited, but a method widely known in the art may be used, and for example, the CMC may be measured by a fluorescent staining method using diphenylhexatriene (DPH).
(§1) Specifically, the critical micelle concentrations (CMCs) were measured using a fluorescent dye, diphenylhexatriene (DPH), and the hydrodynamic radii (Rh) of micelles formed by each preparation (1.0 wt %) were determined by a dynamic light scattering (DLS) experiment. The measured results are shown in Table 1 compared to DDM which is an existing amphiphilic molecule (detergent).

[2] = Hydrodynamic radius (Rh) of micelles by dynamic light scattering (DLS); details: 1.0 wt % detergent
Method: A method of measuring the radius of micelle is not particularly limited, but a method widely known in the art may be used, and for example, the radius of micelle may be measured using a dynamic light scattering (DLS) experiment.
as §1

[3] = Solubility of detergent (Table 1)

Compound | CMC [1] | Rh (nm) [2] | solubility [3]
CCCCCCCCCCCCCCNc1nc(NCCCCCCCCCCCCCC)nc(NC(CO[C@@H]2O[C@H](CO)[C@@H](O)[C@H](O)[C@H]2O)(CO[C@@H]2O[C@H](CO)[C@@H](O)[C@H](O)[C@H]2O)CO[C@@H]2O[C@H](CO)[C@@H](O)[C@H](O)[C@H]2O)n1 [TTG-A14] | ~0.008 mM | 3.2 ± 0.05 nm | ~1%
CCCCCCCCCNc1nc(NCCCCCCCCC)nc(NC(CO[C@@H]2O[C@H](CO)[C@@H](O)[C@H](O)[C@H]2O)(CO[C@@H]2O[C@H](CO)[C@@H](O)[C@H](O)[C@H]2O)CO[C@@H]2O[C@H](CO)[C@@H](O)[C@H](O)[C@H]2O)n1 [TTG-A9] | ~0.5 mM | 2.2 ± 0.20 nm | ~10%
CCCCCCCCCCCOc1nc(OCCCCCCCCCCC)nc(N(CCO[C@@H]2O[C@H](CO)[C@@H](O[C@H]3O[C@H](CO)[C@@H](O)[C@H](O)[C@H]3O)[C@H](O)[C@H]2O)CCO[C@@H]2O[C@H](CO)[C@@H](O[C@H]3O[C@H](CO)[C@@H](O)[C@H](O)[C@H]3O)[C@H](O)[C@H]2O)n1 [TEM-E11] | ~0.001 mM | 25.2 ± 1.2 nm | ~1%
CCCCCCCCCCCSc1nc(SCCCCCCCCCCC)nc(N(CCO[C@@H]2O[C@H](CO)[C@@H](O[C@H]3O[C@H](CO)[C@@H](O)[C@H](O)[C@H]3O)[C@H](O)[C@H]2O)CCO[C@@H]2O[C@H](CO)[C@@H](O[C@H]3O[C@H](CO)[C@@H](O)[C@H](O)[C@H]3O)[C@H](O)[C@H]2O)n1 [TEM-T11] | ~0.001 mM | 31.8 ± 0.3 nm | ~1%
CCCCCCCCSc1nc(NC(CO[C@@H]2O[C@H](CO)[C@@H](O)[C@H](O)[C@H]2O)(CO[C@@H]2O[C@H](CO)[C@@H](O)[C@H](O)[C@H]2O)CO[C@@H]2O[C@H](CO)[C@@H](O)[C@H](O)[C@H]2O)nc(SCCCCCCCC)n1 [TTG-T8] | ~0.015 mM | 2.9 ± 0.09 nm | ~10%
CCCCCCCCCCCSc1nc(NC(CO[C@@H]2O[C@H](CO)[C@@H](O[C@H]3O[C@H](CO)[C@@H](O)[C@H](O)[C@H]3O)[C@H](O)[C@H]2O)CO[C@@H]2O[C@H](CO)[C@@H](O[C@H]3O[C@H](CO)[C@@H](O)[C@H](O)[C@H]3O)[C@H](O)[C@H]2O)nc(SCCCCCCCCCCC)n1 [TSM-T11] | ~0.001 mM | 94.8 ± 45 nm | ~1%
CCCCCCCOc1nc(NC(CO[C@@H]2O[C@H](CO)[C@@H](O[C@H]3O[C@H](CO)[C@@H](O)[C@H](O)[C@H]3O)[C@H](O)[C@H]2O)CO[C@@H]2O[C@H](CO)[C@@H](O[C@H]3O[C@H](CO)[C@@H](O)[C@H](O)[C@H]3O)[C@H](O)[C@H]2O)nc(OCCCCCCC)n1 [TSM-E7] | ~0.04 mM | 3.4 ± 0.1 nm | ~10%
CCCCCCCSc1nc(NC(CO[C@@H]2O[C@H](CO)[C@@H](O)[C@H](O)[C@H]2O)(CO[C@@H]2O[C@H](CO)[C@@H](O)[C@H](O)[C@H]2O)CO[C@@H]2O[C@H](CO)[C@@H](O)[C@H](O)[C@H]2O)nc(SCCCCCCC)n1 [TTG-T7] | ~0.02 mM | 2.8 ± 0.16 nm | ~10%
CCCCCCCCCCNc1nc(NCCCCCCCCCC)nc(NC(CO[C@@H]2O[C@H](CO)[C@@H](O)[C@H](O)[C@H]2O)(CO[C@@H]2O[C@H](CO)[C@@H](O)[C@H](O)[C@H]2O)CO[C@@H]2O[C@H](CO)[C@@H](O)[C@H](O)[C@H]2O)n1 [TTG-A10] | ~0.3 mM | 2.3 ± 0.14 nm | ~10%
CCCCCCCCCCCCNc1nc(NCCCCCCCCCCCC)nc(NC(CO[C@@H]2O[C@H](CO)[C@@H](O)[C@H](O)[C@H]2O)(CO[C@@H]2O[C@H](CO)[C@@H](O)[C@H](O)[C@H]2O)CO[C@@H]2O[C@H](CO)[C@@H](O)[C@H](O)[C@H]2O)n1 [TTG-A12] | ~0.04 mM | 2.5 ± 0.07 nm | ~5%
